Measurements reported in patent US20260115250A1, “METHODS OF TREATING AGE-RELATED MACULAR DEGENERATION” (Character Biosciences, Inc., priority 2022, published 2026).
Peptide text beside a SMILES is read from it.

What was measured:
ARPE-19 cells = assay: ARPE-19 cholesterol efflux; type: cell-based, human; details: ARPE-19, 20 μM peptide, 4 hours
Experimental: Fully confluent 96-well plates of ARPE-19 cells were treated for 1 hour in serum-free DMEM containing 10 mM methyl-β-cyclodextrin, 100 μM cholesterol, and 25 μM BODIPY cholesterol. Cells were then washed and incubated overnight in serum-free DMEM containing 1 μM GW3965, 2 μg/mL ACAT inhibitor, and 0.2% BSA (LXR Agonist treated), or serum free DMEM containing 2 μg/mL ACAT inhibitor, and 0.2% BSA (Control). Cells were washed and incubated with 20 μM peptides diluted in serum-free Fluorobrite DMEM for 4 hours at 37° C. Media was transferred to a new 96-well plate and fresh serum-free Fluorobrite DMEM was placed on the cells. Media and cellular fluorescence were read on a Promega GloMax at 475 nm excitation, 500-550 emission. Fluorescence values were background corrected from no treatment conditions and percent efflux was calculated by the following equation: % efflux=(Media Fluorescence values)/(Media+Cell Fluorescence values). Data are presented as mean+SD over two runs per peptide.

ABCA1 = molecular target: T1, ABCA1 (Homo sapiens, UniProt O95477); assay: membrane ABCA1 stability testing in ARPE-19 cells treated with mCRP; type: cell-based; details: ARPE-19, mCRP, 20 μM peptide, 24 hours
T1 construct: endogenous in cells; host or cells: ARPE-19
Experimental: ARPE-19 cells were seeded at 100,000 cells per well on 12-well plates and were allowed to grow to confluence. To prepare monomeric CRP (mCRP), recombinant CRP was prepared in a PBS solution containing 8 M Urea and 10 mM EDTA and incubated at 37° C. for 2 hours prior to desalting with a Zeba spin column (7K MW cutoff). mCRP was prepared to a 2× solution of 20 μg/mL. A 2× solution of 40 μM peptides was prepared in serum-free DMEM and serially diluted 1:2 over 4 concentrations. mCRP and peptides were added 1:1 to cells for 24 hours at 37° C. before isolating membrane protein and measuring membrane ABCA1 levels by western blot. Blots were quantified in ImageJ. Signals were further normalized to the LXR agonist treated group to determine percent (%) ABCA1 remaining. Treatment with LXR agonist increased membrane ABCA1 levels in this assay, but following treatment with mCRP, membrane ABCA1 levels were decreased.
FIGS. 35 and 36 show membrane ABCA1 stability testing using ARPE-19 cells. ARPE-19 cells were seeded at 100,000 cells per well on 12-well plates and were allowed to grow to confluence. To prepare monomeric CRP (mCRP), recombinant CRP was prepared in a PBS solution containing 8 M Urea and 10 mM EDTA and incubated at 37° C. for 2 hours prior to desalting with a Zeba spin column (7K MW cutoff). mCRP was prepared to a 2× solution of 20 μg/mL. A 2× solution of 40 μM peptides was prepared in serum-free DMEM. CRP and peptides were added 1:1 to cells for 24 hours at 37° C. before isolating membrane protein and measuring membrane ABCA1 levels by western blot. Blots were quantified in ImageJ. In FIG. 35, Signals were further normalized to the T-087 treated group to determine percent (%) ABCA1 levels compared to peptide T-087 treated cells. In FIG. 36, Signals were further normalized to the peptide T-101 treated group to determine percent (%) ABCA1 levels compared to peptide T-101 treated cells.

LDLR = LDLR (Homo sapiens, UniProt P01130); assay: LDLR binding (SPR), high surfactant preparation; details: high surfactant preparation (HBS-P+), 1:1 binding model; read-out: binding KD to LDLR
Experimental: The table shown in FIG. 23 illustrates LDLR binding data (SPR), using a high surfactant preparation. Recombinant LDLR was diluted in 10 mM acetate buffer pH 4.5 and amine coupled to a CM5 chip at 1000 RU. Peptides were diluted to 5 μM in running buffer (HBS-P+, 1 mM CaCl2) and serially diluted 1:3 for 5 total concentrations. Peptides were exposed to immobilized LDLR at a rate of […] for 120 seconds. Between cycles, the chip surface was regenerated with 3 injections of 50 mM NaOH/100 mM EDTA. Multi-Cycle Kinetics was performed on a Biacore Insight Evaluation Software and binding kinetics were analyzed with a 1:1 binding model.

T1 sequence (O95477 whole entry): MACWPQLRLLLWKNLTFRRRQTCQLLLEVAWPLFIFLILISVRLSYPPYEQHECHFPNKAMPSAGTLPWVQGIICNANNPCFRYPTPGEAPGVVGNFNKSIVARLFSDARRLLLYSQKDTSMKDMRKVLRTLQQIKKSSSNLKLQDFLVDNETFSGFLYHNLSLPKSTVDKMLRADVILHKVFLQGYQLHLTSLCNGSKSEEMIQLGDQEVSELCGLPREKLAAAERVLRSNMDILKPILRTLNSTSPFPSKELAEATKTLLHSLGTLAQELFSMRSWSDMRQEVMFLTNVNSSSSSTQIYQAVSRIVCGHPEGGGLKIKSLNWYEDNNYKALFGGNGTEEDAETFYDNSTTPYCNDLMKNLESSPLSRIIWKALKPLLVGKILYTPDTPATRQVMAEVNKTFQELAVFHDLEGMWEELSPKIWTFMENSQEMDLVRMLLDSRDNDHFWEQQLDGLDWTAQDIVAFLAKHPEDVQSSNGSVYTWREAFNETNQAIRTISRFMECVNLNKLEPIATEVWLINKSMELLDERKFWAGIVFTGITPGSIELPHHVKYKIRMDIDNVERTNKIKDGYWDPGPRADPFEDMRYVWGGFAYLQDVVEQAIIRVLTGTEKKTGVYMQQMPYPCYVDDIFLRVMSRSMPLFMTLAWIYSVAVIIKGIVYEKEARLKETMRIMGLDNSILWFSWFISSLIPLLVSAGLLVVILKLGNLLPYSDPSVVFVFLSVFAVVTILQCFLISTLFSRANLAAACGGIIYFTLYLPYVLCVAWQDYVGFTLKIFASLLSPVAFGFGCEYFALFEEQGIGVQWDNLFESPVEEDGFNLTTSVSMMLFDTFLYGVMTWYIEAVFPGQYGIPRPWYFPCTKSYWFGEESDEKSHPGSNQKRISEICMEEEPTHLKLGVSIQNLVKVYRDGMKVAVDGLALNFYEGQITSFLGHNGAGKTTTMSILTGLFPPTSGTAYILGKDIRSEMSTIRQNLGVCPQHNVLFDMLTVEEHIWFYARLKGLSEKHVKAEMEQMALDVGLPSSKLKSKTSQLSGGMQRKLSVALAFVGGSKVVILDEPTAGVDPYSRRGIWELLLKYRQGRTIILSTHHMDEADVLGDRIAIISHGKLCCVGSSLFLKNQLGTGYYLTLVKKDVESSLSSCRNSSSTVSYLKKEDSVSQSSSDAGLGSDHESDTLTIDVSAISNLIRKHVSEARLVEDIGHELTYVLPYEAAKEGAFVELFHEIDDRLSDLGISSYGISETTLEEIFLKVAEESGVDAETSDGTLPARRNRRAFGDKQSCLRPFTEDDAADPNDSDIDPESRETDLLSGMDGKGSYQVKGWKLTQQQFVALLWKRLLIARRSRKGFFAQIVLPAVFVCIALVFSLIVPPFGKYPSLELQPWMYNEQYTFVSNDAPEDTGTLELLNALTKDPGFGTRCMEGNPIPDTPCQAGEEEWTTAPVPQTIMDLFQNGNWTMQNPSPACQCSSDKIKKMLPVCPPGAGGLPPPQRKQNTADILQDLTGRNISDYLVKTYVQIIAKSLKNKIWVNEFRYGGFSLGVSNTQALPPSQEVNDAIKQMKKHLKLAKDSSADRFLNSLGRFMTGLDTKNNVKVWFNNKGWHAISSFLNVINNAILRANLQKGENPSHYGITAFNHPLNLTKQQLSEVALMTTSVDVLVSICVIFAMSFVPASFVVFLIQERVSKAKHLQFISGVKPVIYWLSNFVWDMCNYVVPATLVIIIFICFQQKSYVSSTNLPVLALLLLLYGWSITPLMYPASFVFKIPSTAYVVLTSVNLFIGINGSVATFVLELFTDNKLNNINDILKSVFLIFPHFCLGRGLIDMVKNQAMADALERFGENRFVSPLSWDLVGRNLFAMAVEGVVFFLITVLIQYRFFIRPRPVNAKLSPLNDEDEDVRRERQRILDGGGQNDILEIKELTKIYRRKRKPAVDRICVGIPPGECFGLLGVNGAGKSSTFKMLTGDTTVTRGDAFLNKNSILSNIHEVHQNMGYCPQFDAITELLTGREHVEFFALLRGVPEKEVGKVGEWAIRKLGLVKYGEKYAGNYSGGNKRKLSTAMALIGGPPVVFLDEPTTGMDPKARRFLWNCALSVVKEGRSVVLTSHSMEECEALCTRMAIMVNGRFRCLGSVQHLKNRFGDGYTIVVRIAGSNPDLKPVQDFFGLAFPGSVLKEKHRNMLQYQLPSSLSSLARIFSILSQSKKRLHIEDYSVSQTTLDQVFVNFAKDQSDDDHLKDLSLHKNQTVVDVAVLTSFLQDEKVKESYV
Chain of LDLR (P01130 22-860): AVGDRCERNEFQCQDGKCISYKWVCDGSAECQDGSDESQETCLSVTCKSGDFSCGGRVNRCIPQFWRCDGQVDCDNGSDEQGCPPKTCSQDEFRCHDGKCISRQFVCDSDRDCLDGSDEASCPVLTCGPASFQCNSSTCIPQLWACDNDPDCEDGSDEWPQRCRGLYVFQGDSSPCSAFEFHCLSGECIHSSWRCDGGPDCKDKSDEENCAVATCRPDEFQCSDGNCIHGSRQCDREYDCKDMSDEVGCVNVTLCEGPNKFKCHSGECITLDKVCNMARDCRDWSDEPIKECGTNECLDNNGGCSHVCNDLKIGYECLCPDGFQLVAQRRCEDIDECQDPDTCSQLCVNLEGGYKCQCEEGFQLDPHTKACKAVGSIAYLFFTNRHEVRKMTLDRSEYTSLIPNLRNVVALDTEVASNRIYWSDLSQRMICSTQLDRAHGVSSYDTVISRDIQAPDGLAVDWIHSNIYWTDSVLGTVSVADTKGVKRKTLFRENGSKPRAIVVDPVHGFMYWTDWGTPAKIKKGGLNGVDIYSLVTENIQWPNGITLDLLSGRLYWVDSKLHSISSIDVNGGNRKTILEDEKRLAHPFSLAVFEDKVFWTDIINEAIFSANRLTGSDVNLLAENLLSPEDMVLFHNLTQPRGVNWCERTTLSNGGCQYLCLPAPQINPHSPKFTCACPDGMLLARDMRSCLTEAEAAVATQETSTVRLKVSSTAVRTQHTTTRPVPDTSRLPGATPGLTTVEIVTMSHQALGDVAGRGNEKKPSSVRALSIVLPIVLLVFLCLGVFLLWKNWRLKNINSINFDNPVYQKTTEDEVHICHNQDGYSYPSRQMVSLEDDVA

Molecule	cholesterol efflux following LXR agonist treatment (ARPE-19 cells)	membrane ABCA1 levels compared to peptide T-087 treated cells (ABCA1)	Kd (LDLR)
T-176: variant of peptide T-087 (DAWERFRALAAALADYFR)	increased cholesterol efflux	–	–
T-178: variant of peptide T-087 (DAWERFRALFKELADAAA)	increased cholesterol efflux	–	–
T-153: variant of peptide T-087 (DPWERFRALFKELADYFR)	increased cholesterol efflux	–	–
T-170: variant of peptide T-087 (DAWERFRALFKELADAFR)	increased cholesterol efflux	reduction of membrane ABCA1 levels	–
T-174: variant of peptide T-087 (DAWAAARALFKELADYFR)	increased cholesterol efflux	–	–
T-164: variant of peptide T-087 (DAWERFRALFAELADYFR)	increased cholesterol efflux	–	–
T-156: variant of peptide T-087 (DAWARFRALFKELADYFR)	increased cholesterol efflux	reduction of membrane ABCA1 levels	–
T-168: variant of peptide T-087 (DAWERFRALFKELGDYFR)	increased cholesterol efflux	–	–
T-171: variant of peptide T-087 (DAWERFRALFKELADYAR)	increased cholesterol efflux	–	–
T-162: variant of peptide T-087 (DAWERFRAAFKELADYFR)	increased cholesterol efflux	reduction of membrane ABCA1 levels	–
T-175: variant of peptide T-087 (DAWERFAAAFKELADYFR)	increased cholesterol efflux	–	–
T-158: variant of peptide T-087 (DAWERARALFKELADYFR)	increased cholesterol efflux	reduction of membrane ABCA1 levels	–
T-155: variant of peptide T-087 (DAAERFRALFKELADYFR)	increased cholesterol efflux	reduction of membrane ABCA1 levels	–
T-157: variant of peptide T-087 (DAWEAFRALFKELADYFR)	increased cholesterol efflux	reduction of membrane ABCA1 levels	–
T-159: variant of peptide T-087 (DAWERFAALFKELADYFR)	increased cholesterol efflux	reduction of membrane ABCA1 levels	–
T-167: variant of peptide T-087 (DAWERFRALFKELPDYFR)	increased cholesterol efflux	reduction of membrane ABCA1 levels	–
CC(C)C[C@H](NC(=O)[C@H](CCCNC(=N)N)NC(=O)[C@H](CC(=O)O)NC(=O)[C@H](CCC(N)=O)NC(=O)[C@H](CC(C)C)NC(=O)[C@H](CCCCN)NC(=O)[C@H](CC(=O)O)NC(=O)CNC(=O)[C@H](CC(=O)O)NC(=O)[C@H](CCCNC(=N)N)NC(=O)[C@H](CC(C)C)NC(=O)[C@H](CC(C)C)NC(=O)[C@H](CCCNC(=N)N)NC(=O)[C@H](CCCCN)NC(=O)[C@H](CCCNC(=N)N)NC(=O)[C@H](CC(C)C)NC(=O)[C@H](CCCCN)NC(=O)[C@H](CCCNC(=N)N)NC(=O)[C@H](CC(C)C)NC(=O)[C@@H](N)Cc1c[nH]cn1)C(=O)N[C@@H](C)C(=O)N[C@@H](CCC(=O)O)C(=O)N[C@@H](Cc1ccc(O)cc1)C(=O)N[C@@H](CCC(N)=O)C(=O)N[C@@H](C)C(=O)N[C@@H](CCCNC(=N)N)C(=O)N[C@@H](C)C(=O)N[C@@H](CCCNC(=N)N)C(=O)N[C@@H](CCC(=O)O)C(=O)N[C@@H](C)C(=O)N[C@@H](Cc1ccccc1)C(=O)N[C@@H](CC(=O)O)C(=O)N[C@@H](CCCNC(=N)N)C(=O)O [T-055] (H-HLRKLRKRLLRDGDKLQDRLAEYQARAREAFDR-OH)	–	–	< 10 µM
CC(C)C[C@H](NC(=O)[C@H](CCCNC(=N)N)NC(=O)[C@H](CCCCN)NC(=O)[C@H](CCC(N)=O)NC(=O)[C@H](CC(C)C)NC(=O)[C@H](CC(=O)O)NC(=O)[C@H](CC(=O)O)NC(=O)[C@H](C)NC(=O)[C@H](CC(=O)O)NC(=O)[C@H](CCCNC(=N)N)NC(=O)[C@H](CC(C)C)NC(=O)[C@H](CC(C)C)NC(=O)[C@H](CCCNC(=N)N)NC(=O)[C@H](CCCCN)NC(=O)[C@H](CCCNC(=N)N)NC(=O)[C@H](CC(C)C)NC(=O)[C@H](CCCCN)NC(=O)[C@H](CCCNC(=N)N)NC(=O)[C@H](CC(C)C)NC(=O)[C@H](Cc1c[nH]cn1)NC(=O)[C@H](CO)NC(=O)[C@H](C)NC(=O)[C@@H](N)CC(C)C)C(=O)N[C@@H](C)C(=O)N[C@H](C(=O)N[C@@H](Cc1ccc(O)cc1)C(=O)N[C@@H](CCC(N)=O)C(=O)N[C@@H](C)C(=O)NCC(=O)N[C@@H](C)C(=O)N[C@@H](CCCNC(=N)N)C(=O)N[C@@H](CCC(=O)O)C(=O)NCC(=O)N[C@@H](C)C(=O)N[C@@H](CCC(=O)O)C(=O)N[C@@H](CCCNC(=N)N)C(=O)O)C(C)C [T-046]	–	–	< 10 µM
T-154: variant of peptide T-087 (DGWERFRALFKELADYFR)	increased cholesterol efflux	–	–
T-166: variant of peptide T-087 (DAWERFRALFKEAADYFR)	increased cholesterol efflux	reduction of membrane ABCA1 levels	–
